Patent publication US9598362B2, “Benzidine derivative, method for preparing same, and pharmaceutical composition containing benzidine derivative for treating liver disease caused by hepatitis C virus” (priority 2013, dated 2017)
Read-outs that look alike come from different tables or passages of the source.

Test system: HCV replicon NK/R2AN
Experiment: Evaluation of anti-HCV activity 2: inhibition of HCV replication, huh7.5.1 cells with replicon NK/R2AN, renilla luciferase
Assay type: cell-based
Conditions: for EC50: Hepatitis C virus
Procedure: To evaluate the anti-HCV activity, that is the activity to inhibit HCV replication, of the compound represented by formula 1 of the present invention, the following experiment was performed.
The hepatoma cell line huh7.5.1 having NK/R2AN, the replicon with which the replication and translation of HCV could be measured, was distributed in a 12-well cell culture plate at the density of 50,000 cells/well. The cells were cultured in DMEM (Dulbecco's Modified Eagle's Medium 12800-017, GIBCO Co.) supplemented with 10% (v/v) FBS (Fetal Bovine Serum SH30406.02, Hyclone Co.), 1% (v/v) antibiotics (penicillin/streptomycin solution SV30010, Hyclone Co.), and G418 (600 μg/mL, Calbiochem) in a 37° C. 6.0% CO2 incubator (CO2 Incubator 311, Forma Scientific Co, Lnc. USA) for 24 hours to lead cell attachment on the plate. Then, the cells were inoculated with HCV having renilla luciferase gene as a reporter for 3 hours. Upon completion of the virus inoculation, the cell culture medium was replaced with the medium containing the compounds prepared in Examples 1˜24 were added to the culture medium at the concentrations of 40 pM˜1 μM each. The cells were cultured in a 37° C. 6.0% CO2 incubator (CO2 Incubator 311, Forma Scientific Co, Lnc. USA) for 3 days. Three days after the infection, the cell culture medium was collected to measure the cytotoxicity in the following Experimental Example 3. The cells attached on the plate were washed with PBS (phosphate buffered saline) and then lysed by treating 100 μl of 1× passive lysis buffer (Promega, E1941). The cell lysate (10 μl) was added to renilla luciferase assay reagent (50 μl) in renilla luciferase assay system (Promega, E2820), followed by measurement of luminescence for 10 seconds using the luciferase measure program with Luminometer (GLOMAX 20/20 Luminometer, Promega). At this time, the measurement of luminescence was performed in triplicate with the groups treated with the compounds of Examples 1˜24 and the non-treated control group. The mean value was calculated and compared. The luminescence of each compound over the concentration was converted into EC50 (half maximal effective concentration) by using sigma plot program, and the results are shown in Table 3. At this time, when EC50 was under 100 pM, it was marked as A; when EC50 was in the range of 100 pM 1 nM, it was marked as B; when EC50 was in the range of 1 nM˜100 nM, it was marked as C; and when EC50 was over 100 nM, it was marked as D. The results are shown in Table 3.

COC(=O)N[C@@H](C(=O)N1CCC[C@H]1C(=O)Nc1ccc(-c2ccc(NC(=O)[C@@H]3CCCN3C(=O)[C@H](NC(=O)OC)c3ccccc3)cc2)cc1)c1ccccc1 [Example 16, dimethyl(1S,1′S)-2,2′-((2S,2′S)-2,2′-(biphenyl-4,4′-diylbis(azandiyl))bis(oxomethylene)bis(pyrrolidine-2,1-diyl))bis(2-oxo-1-phenylethane-2,1-diyl)dicarbamate]
EC50 (Huh-7.5.1): < 0.1 nM | EC50 (Huh-7.5.1, 72 h, read-out: EC50 grade): < 0.1 nM | EC50 (in words) (duplicated HCV treated with compound): significantly low
